One test relates to HeLa. Put plainly: Growth inhibition of human HeLa cells after 72 hrs by trypan blue assay. The class given is functional.
The subject of the next test is HL-60. Put plainly: Growth inhibition of human HL60 cells after 72 hrs by trypan blue assay. The settings on record: HL-60, 72 h. The class given is functional.
The next test deals with HepG2. Put plainly: Growth inhibition of human HepG2 cells after 72 hrs by trypan blue assay. Type of test: functional. As to conditions: HepG2, 72 h.
Test [1] has as its target DNA topoisomerase 2-alpha (Homo sapiens) (UniProt P11388). Put plainly: Inhibition of human recombinant topoisomerase-2 alpha expressed in Escherichia coli assessed as reduction in supercoiled pBR322 DNA relaxation after 60 mins by ethidium bromide staining based agarose gel electrophoresis.
Another test concerns Salmon testes DNA. As to the kind of experiment: Binding affinity to Salmon testis DNA assessed as drug-DNA complex formation at drug:DNA ratio of 0.08 at 310 to 380 nanometer by linear flow dichroism method. As to conditions: Salmonidae. Type of test: nucleic-acid assay.
Test [2] has as its target DNA topoisomerase 2-alpha (Homo sapiens) (UniProt P11388). As to the kind of experiment: Poison activity at human recombinant topoisomerase-2 alpha expressed in Escherichia coli assessed as generation of linear DNA using supercoiled pBR322 DNA at 100 to 200 uM after 60 mins by ethidium bromide staining based agarose gel electrophoresis.
For test [3] the target is unchanged. Put plainly: Inhibition of human recombinant topoisomerase-2 alpha expressed in Escherichia coli assessed as reduction in supercoiled pBR322 DNA relaxation at 8 uM after 60 mins by ethidium bromide staining based agarose gel electrophoresis.
Test [4] has the same target. Put plainly: Poison activity at human recombinant topoisomerase-2 alpha expressed in Escherichia coli assessed as generation of linear DNA using supercoiled pBR322 DNA at 8 uM after 60 mins by ethidium bromide staining based agarose gel electrophoresis.

As usually defined, the GI50 is the concentration that inhibits growth by half.

Active and inactive are the calls of the source. The calls are words filed in the database; no cut-off is given here.

Sequence of DNA topoisomerase 2-alpha (Homo sapiens) (P11388 whole entry): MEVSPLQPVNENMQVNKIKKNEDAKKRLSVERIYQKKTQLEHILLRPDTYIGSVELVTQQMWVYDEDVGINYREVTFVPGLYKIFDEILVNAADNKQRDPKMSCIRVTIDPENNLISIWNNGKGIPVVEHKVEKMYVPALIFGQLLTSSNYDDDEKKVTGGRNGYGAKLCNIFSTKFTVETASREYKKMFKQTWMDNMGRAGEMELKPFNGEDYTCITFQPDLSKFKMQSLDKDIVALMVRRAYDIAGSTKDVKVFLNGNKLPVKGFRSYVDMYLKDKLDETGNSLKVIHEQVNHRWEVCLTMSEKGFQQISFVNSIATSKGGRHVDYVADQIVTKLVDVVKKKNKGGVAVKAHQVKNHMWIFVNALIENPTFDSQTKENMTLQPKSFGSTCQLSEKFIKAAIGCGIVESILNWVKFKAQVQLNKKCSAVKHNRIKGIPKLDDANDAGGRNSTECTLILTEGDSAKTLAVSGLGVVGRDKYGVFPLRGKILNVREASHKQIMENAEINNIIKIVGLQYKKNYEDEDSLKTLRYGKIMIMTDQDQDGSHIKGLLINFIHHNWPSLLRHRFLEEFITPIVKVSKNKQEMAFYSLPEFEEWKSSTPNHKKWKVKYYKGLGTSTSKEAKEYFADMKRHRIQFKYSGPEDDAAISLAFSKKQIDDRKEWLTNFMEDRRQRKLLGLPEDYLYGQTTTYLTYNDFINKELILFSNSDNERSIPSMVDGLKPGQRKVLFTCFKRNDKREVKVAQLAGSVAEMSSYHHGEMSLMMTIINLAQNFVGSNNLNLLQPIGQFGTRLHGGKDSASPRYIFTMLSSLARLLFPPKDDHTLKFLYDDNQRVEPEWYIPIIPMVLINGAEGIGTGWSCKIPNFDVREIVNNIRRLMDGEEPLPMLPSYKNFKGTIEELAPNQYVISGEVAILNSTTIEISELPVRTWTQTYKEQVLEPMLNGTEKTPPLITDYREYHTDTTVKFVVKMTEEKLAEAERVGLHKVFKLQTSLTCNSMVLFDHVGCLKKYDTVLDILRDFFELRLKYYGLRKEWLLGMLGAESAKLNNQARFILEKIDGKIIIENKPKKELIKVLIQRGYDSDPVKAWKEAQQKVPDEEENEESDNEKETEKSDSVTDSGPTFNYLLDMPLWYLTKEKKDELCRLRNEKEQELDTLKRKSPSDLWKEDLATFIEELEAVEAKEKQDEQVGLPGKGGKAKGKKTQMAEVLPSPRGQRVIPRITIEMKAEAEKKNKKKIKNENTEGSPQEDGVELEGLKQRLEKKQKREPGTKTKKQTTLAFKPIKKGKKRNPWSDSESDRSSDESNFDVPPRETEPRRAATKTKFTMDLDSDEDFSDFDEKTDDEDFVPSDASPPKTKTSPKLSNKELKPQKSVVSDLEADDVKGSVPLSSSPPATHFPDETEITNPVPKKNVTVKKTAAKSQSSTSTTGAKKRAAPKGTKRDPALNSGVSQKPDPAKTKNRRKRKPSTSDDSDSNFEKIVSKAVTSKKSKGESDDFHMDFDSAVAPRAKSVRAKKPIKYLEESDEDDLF

With `O=C(NCCN1CCOCC1)c1cnc2ccc3ccccc3c2c1`, the GI50 in the test with HeLa, in the test with HL-60 and with HepG2 was above 50 µM each time.
As for `CN(C)CCNC(=O)c1cnc2c(ccc3cc4c(cc32)OCCO4)c1`, the GI50 with HeLa is above 50 µM; in the test on HL-60, 30 µM; with HepG2, above 50 µM.
Consider `CN(C)CCN1CCN(C(=O)c2cnc3c(ccc4cc5c(cc43)OCCO5)c2)CC1`, for which the values for the GI50 in the test on HeLa, in the test with HL-60 and in the test with HepG2 were above 50 µM, 33.8 µM and 39.4 µM, respectively.
Consider `CCOC(=O)c1cnc2c(ccc3ccccc32)c1`, for which the GI50 is above 50 µM in the test on HeLa, above 50 µM in the test on HL-60 and at least 50 µM with HepG2.
Consider `CN(C)CCN1CCN(C(=O)c2cnc3ccc4ccccc4c3c2)CC1`, for which the concentration for 50% growth inhibition (GI50) in the test with HeLa, in the test with HL-60 and in the test with HepG2 was above 50 µM each time.
As to `CN(C)CCNC(=O)c1cnc2c(ccc3ccccc32)c1`, the GI50 was above 50 µM with HeLa, 29.8 µM with HL-60 and 32.2 µM with HepG2.
On the same counts, the results for `CCOC(=O)c1cnc2ccc3ccccc3c2c1` are above 50 µM, at least 50 µM and at least 50 µM.
Taken in the same sequence, the figures for `CN(C)CCN1CCN(C(=O)c2cnc3c(ccc4ccccc43)c2)CC1` were above 50 µM, above 50 µM and above 50 µM.
Taken in the same sequence, the figures for `O=C(NCCN1CCOCC1)c1cnc2c(ccc3cc4c(cc32)OCCO4)c1` were above 50 µM, 32.5 µM and above 50 µM.
Consider `CN(C)CCNC(=O)c1cnc2ccc3ccccc3c2c1`, for which the GI50 in the test on HeLa is above 50 µM; with HL-60 it was 24.1 µM; in the test with HepG2 it was 27.8 µM. The inhibition result in test [1] is “Dose-dependent effect”. Also, the result with Salmon testes DNA was Active. The result in test [2] was inactive.
For `COc1cc(NS(C)(=O)=O)ccc1Nc1c2ccccc2nc2ccccc12`, in test [3], the inhibition result is “Active”. In addition, the outcome in test [4] was Active.
Regarding `O=C(NCCN1CCOCC1)c1cnc2c(ccc3ccccc32)c1`, the GI50 with HeLa, with HL-60 and with HepG2 was above 50 µM throughout.
With `CCOC(=O)c1cnc2c(ccc3cc4c(cc32)OCCO4)c1`, the GI50 in the test with HeLa, in the test on HL-60 and with HepG2 was above 50 µM each time.

Values taken from ChEMBL document CHEMBL4428130, “Novel benzoquinoline derivatives via unpredicted condensation of ethyl propiolate and naphthylamines: Synthesis and topoisomerase inhibition activity” (2016).
